Experimental data from patent US7745173B2, “Histone deacetylase and methods of use thereof” (The J. David Gladstone Institutes, priority 2001, dated 2010).

Tests used:
[1] = system: CRM1-mediated nuclear export of HDAC7-FLAG; experiment: Subcellular localization of HDAC7-FLAG in transfected cells by indirect immunofluorescence; type: cell-based
Description: Immunofluorescence and Confocal Microscopy—Cells were plated onto glass coverslips and transfected the following day with Lipofectamine 2000 (Life Technologies) according to the manufacturer's instructions. After incubation overnight, transfected cells were fixed with 1% paraformaldehyde, permeabilized with phosphate buffered saline (PBS), pH 7.2 and 0.5% Triton X-100 and then incubated for 60 min at room temperature with the appropriate antibodies at dilutions typically between 1:100 and 1:1000. Cells were mounted onto glass slides in PBS/90% glycerol containing 1 mM paraphenylenediamine as an antifade reagent. Confocal microscopy was performed with a Zeiss LSM510 laser scanning confocal microscope at 488 nm (Alexa 488-conjugated secondary antibodies) and 543 nm (Cy3-conjugated secondary antibodies). The pinhole aperture was set to 1.0 airy unit for each channel. Band-pass filters and sequential scanning of individual fluorescent probes were used to eliminate cross talk between channels. Images were collected as 12-bit images, and each channel was independently rescaled from 0 to 255 (8-bit) for final presentation. […]

Nur77 = Nur77 mRNA expression by northern blot in DO11.10 T-cells; type: cell-based, mouse; conditions: DO11.10 cells, 400 nM, various times
Description: DO11.10 T cell hybridomas were grown at 37° C., in RPMI 1640 medium supplemented with 10% FBS, 2 mM glutamine and 50 U/ml of streptomycin/penicillin. Transfections were performed by the DEAE-dextran-chlororquine method. The DNA concentration was kept constant in the different samples by using the corresponding empty vector. In some cases, 16 hours after transfection cells were treated with PMA (10 ng/ml) and ionomycin (0.5 μM) for 4 hours and then harvested for reporter assay. All transfections were done in triplicate and are presented as the result of at least 3 independent experiments. Luciferase reporter assays were done with the dual luciferase reporter assay system (Promega) using an EF1α promoter-driven renilla expression vector as an internal control.
The tissue-expression of HDAC7 was analyzed as using a multiple human tissue Northern blot and RNA Master blots obtained from Clontech. Expression of Nur77 upon TSA treatment was assessed as followed. DO11.10 cells were treated with 400 nM of TSA (Sigma) for various times. […] Autoradiographs were analyzed with a FUJIX BAS1000 phosphorus imaging system (Fuji, Tokyo, Japan). Quantification analysis of autoradiographs was performed on a Macintosh computer using the public domain NIH Image 1.62 program (developed at the U.S. National Institute of Health).

thymocytes = experiment: Apoptosis in thymocytes expressing dominant negative HDAC7 constructs, commercially available kit; type: cell-based; conditions: construct expressed in thymocytes
Description: Constructs encoding dominant negative mutants of HDAC7 were generated. These constructs direct expression of either the amino terminal domain (amino acids 1-437) or the carboxyl terminal domain (amino acids 438-915) of HDAC7 in mammalian cells. These construct were individually introduced into thymocytes. Apoptosis was measured using a commercially available kit.

Molecule	Apoptosis in thymocytes (thymocytes)	further results
CCC(=C/[C@H](C)C/C=C/C(C)=C/[C@@H](C)C(=O)[C@@H](C)[C@H](O)[C@@H](C)C/C(C)=C/C(=O)O)/C=C/[C@@H]1OC(=O)C=C[C@@H]1C [leptomycin B]		Subcellular localization of HDAC7-FLAG [1]: nuclear localization of HDAC7-FLAG in most transfected cells
CC(/C=C/C(=O)NO)=C\[C@@H](C)C(=O)c1ccc(N(C)C)cc1 [trichostatin A]		Nur77 mRNA expression (Nur77): induced in a time dependent manner
carboxyl terminal domain (amino acids 438-915): dominant negative mutant of HDAC7: carboxyl terminal domain, amino acids 438-915, expressed from a construct (protein, UniProt Q8WUI4 438-915, looked up, fragment) GPAPLQQHPQVLLWEQQRLAGRLPRGSTGDTVLLPLAQGGHRPLSRAQSSPAAPASLSAPEPASQARVLSSSETPARTLPFTTGLIYDSVMLKHQCSCGDNSRHPEHAGRIQSIWSRLQERGLRSQCECLRGRKASLEELQSVHSERHVLLYGTNPLSRLKLDNGKLAGLLAQRMFVMLPCGGVGVDTDTIWNELHSSNAARWAAGSVTDLAFKVASRELKNGFAVVRPPGHHADHSTAMGFCFFNSVAIACRQLQQQSKASKILIVDWDVHHGNGTQQTFYQDPSVLYISLHRHDDGNFFPGSGAVDEVGAGSGEGFNVNVAWAGGLDPPMGDPEYLAAFRIVVMPIAREFSPDLVLVSAGFDAAEGHPAPLGGYHVSAKCFGYMTQQLMNLAGGAVVLALEGGHDLTAICDASEACVAALLGNRVDPLSEEGWKQKPNLNAIRSLEAVIRVHSKYWGCMQRLASCPDSWVPRVPGA	strongly induces apoptosis	
amino terminal domain (amino acids 1-437): dominant negative mutant of HDAC7: amino terminal domain, amino acids 1-437, expressed from a construct (protein, UniProt Q8WUI4 1-437, looked up, fragment) MDLRVGQRPPVEPPPEPTLLALQRPQRLHHHLFLAGLQQQRSVEPMRLSMDTPMPELQVGPQEQELRQLLHKDKSKRSAVASSVVKQKLAEVILKKQQAALERTVHPNSPGIPYRTLEPLETEGATRSMLSSFLPPVPSLPSDPPEHFPLRKTVSEPNLKLRYKPKKSLERRKNPLLRKESAPPSLRRRPAETLGDSSPSSSSTPASGCSSPNDSEHGPNPILGSEALLGQRLRLQETSVAPFALPTVSLLPAITLGLPAPARADSDRRTHPTLGPRGPILGSPHTPLFLPHGLEPEAGGTLPSRLQPILLLDPSGSHAPLLTVPGLGPLPFHFAQSLMTTERLSGSGLHWPLSRTRSEPLPPSATAPPPPGPMQPRLEQLKTHVQVIKRSAKPSEKPRLRQIPSAEDLETDGGGPGQVVDDGLEHRELGHGQPEAR	strongly induces apoptosis	
